Tests used:
[1] = target: T1, human recombinant dopamine D2L receptor (Homo sapiens, UniProt P14416); assay: Dopamine D2L radioligand binding ([3H]Spiperone); conditions: read-out: Dopamine D2L (1 μM), percent inhibition of specific binding; compound at 1 μM; 0.16 nM [3H]Spiperone
T1 construct: expressed in transfected cells; host or cells: CHO
Method: Non-specific binding was estimated in the presence of 10 μM Haloperidol. Receptor proteins were filtered and washed, the filters were then counted to determine [^3H]Spiperone specifically bound.

[2] = target: T2, human recombinant serotonin (5-Hydroxytryptamine) 5-HT2C receptor (Homo sapiens, UniProt P28335); assay: Serotonin 5-HT2C radioligand binding ([3H]Mesulergine); conditions: compound at 0.1 μM; read-out: Inhibition of ligand binding, Serotonin 5-HT2C (percent inhibition of specific binding)
T2 construct: expressed in transfected cells; host or cells: CHO-K1
T2 sequence (P28335 33-458): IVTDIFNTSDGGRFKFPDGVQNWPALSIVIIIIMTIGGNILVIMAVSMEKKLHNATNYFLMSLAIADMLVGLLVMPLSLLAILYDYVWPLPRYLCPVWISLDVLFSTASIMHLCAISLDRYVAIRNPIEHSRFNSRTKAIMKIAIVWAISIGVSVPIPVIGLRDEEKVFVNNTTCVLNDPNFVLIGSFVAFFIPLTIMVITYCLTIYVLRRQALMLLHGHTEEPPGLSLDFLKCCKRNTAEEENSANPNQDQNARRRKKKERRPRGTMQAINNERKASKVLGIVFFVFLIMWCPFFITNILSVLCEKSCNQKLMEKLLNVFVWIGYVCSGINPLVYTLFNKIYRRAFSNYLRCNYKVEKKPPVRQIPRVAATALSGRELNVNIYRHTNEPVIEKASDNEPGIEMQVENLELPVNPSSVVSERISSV
Method: Compounds of the invention were incubated with 1 nM [^3H]Mesulergine for 60 min at 25° C. Non-specific binding was estimated in the presence of 1 μM Mianserin. Receptor proteins were filtered and washed, the filters were then counted to determine [^3H]Mesulergine specifically bound.

[3] = target: T3, human recombinant serotonin (5-Hydroxytryptamine) 5-HT7 receptor (Homo sapiens, UniProt P34969); assay: Serotonin 5-HT7 radioligand binding ([3H]LSD); conditions: compound at 0.1 μM; read-out: Inhibition of ligand binding, Serotonin 5-HT7 (percent inhibition of specific binding)
T3 construct: expressed in transfected cells; host or cells: CHO
T3 sequence (P34969 whole entry): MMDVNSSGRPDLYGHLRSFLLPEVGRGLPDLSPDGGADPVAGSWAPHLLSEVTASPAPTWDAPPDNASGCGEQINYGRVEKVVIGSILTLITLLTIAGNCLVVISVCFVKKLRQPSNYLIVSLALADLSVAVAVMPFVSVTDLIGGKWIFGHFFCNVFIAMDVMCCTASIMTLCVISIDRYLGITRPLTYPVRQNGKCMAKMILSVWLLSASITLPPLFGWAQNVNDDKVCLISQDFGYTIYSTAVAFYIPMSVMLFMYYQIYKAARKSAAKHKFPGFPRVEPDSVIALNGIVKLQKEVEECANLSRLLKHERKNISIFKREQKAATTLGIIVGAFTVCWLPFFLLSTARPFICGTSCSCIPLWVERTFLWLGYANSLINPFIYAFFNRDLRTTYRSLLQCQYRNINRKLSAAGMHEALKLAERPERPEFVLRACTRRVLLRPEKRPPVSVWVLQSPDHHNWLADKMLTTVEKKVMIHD
Method: Lysergic acid diethylamide (LSD) for 120 min. at 25° C. […] Receptor proteins were filtered and washed, the filters were then counted to determine [^3H]LSD specifically bound.

[4] = target: T4, human recombinant adrenergic α2A receptor (Homo sapiens, UniProt P08913); assay: Adrenergic α2A radioligand binding ([3H]MK-912); conditions: read-out: Adrenergic (0.1 μM) a2A, percent inhibition of specific binding; compound at 0.1 μM; 1 nM [3H]MK-912
T4 construct: expressed in transfected cells; host or cells: insect Sf9 cells
T4 sequence (P08913 1-465): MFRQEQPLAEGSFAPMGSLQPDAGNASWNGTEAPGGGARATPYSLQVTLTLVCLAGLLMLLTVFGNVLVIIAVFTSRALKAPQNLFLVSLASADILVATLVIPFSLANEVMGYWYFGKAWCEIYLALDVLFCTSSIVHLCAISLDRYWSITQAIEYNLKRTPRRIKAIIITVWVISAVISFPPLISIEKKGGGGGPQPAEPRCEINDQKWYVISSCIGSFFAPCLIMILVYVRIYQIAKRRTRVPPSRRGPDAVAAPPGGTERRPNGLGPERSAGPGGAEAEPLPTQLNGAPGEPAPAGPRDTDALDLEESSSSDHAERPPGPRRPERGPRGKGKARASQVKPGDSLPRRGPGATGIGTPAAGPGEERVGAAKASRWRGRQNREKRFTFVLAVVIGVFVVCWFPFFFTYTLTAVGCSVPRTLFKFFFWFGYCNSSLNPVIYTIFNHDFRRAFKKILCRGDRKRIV
Method: To evaluate in radioligand binding assays the activity of compounds of the invention, human recombinant adrenergic α2A receptor expressed in insect Sf9 cells (Uhlen, S. et al, J. Pharmacol. Exp. Ther. 271:1558, 1994) in a modified Tris-HCl buffer (50 mM Tris-HCl, pH 7.4, 12.5 mM MgCl2, 2 mM EDTA) was used. Compounds of invention were incubated with 1 nM [^3H]MK-912 for 60 min at 25° C. MK-912 is (2S-trans)-1,3,4,5′,6,6′,7,12b-octahydro-1′,3′-dimethyl-spiro[2H-benzofuro[2,3-a]quinolizine-2,4′(1′H)-pyrimidin]-2′(3′H)-one hydrochloride Non-specific binding was estimated in the presence of 10 μM WB-4101 (2-(2,6-Dimethoxyphenoxyethyl)aminomethyl-1,4-benzodioxane hydrochloride). Receptor proteins were filtered and washed, the filters were then counted to determine [^3H]MK-912 specifically bound. […] Compounds of the invention were tested in this biochemical assay and percent inhibition of specific binding was determined.

Adrenergic α1B = target: T5, Adrenergic α1B (Rattus norvegicus, UniProt P15823); assay: Adrenergic α1B radioligand binding ([3H]Prazosin); conditions: read-out: Adrenergic (0.1 μM) a1B, percent inhibition of specific binding; compound at 0.1 μM; 0.25 nM [3H]Prazosin; Wistar Rat liver
T5 construct: rat adrenergic α1D receptor obtained from Wistar Rat liver; from tissue; host or cells: Wistar rat liver
T5 sequence (P15823 1-515): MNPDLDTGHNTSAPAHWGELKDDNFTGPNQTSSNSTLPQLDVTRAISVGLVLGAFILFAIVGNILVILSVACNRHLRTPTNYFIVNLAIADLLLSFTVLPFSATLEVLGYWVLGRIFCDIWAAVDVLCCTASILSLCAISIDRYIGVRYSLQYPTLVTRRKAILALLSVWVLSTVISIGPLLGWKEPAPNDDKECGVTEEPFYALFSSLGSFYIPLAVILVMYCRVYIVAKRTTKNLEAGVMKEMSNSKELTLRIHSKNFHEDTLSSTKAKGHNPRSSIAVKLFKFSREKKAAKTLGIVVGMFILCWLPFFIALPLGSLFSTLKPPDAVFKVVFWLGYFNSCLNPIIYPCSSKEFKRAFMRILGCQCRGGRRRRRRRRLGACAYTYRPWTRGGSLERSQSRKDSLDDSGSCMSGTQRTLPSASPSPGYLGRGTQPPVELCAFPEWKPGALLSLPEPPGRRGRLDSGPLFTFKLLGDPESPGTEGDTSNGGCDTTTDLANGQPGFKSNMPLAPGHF
Method: To evaluate in radioligand binding assays the activity of compounds of the invention, rat adrenergic α1D receptor obtained from Wistar Rat liver (Garcia-S'ainz, J. et al, Biochem. Biophys. Res. Commun. 186:760, 1992; Michel, A. et al, Br. J. Pharmacol. 98:883, 1989) in a modified Tris-HCl buffer (50 mM Tris-HCl buffer, pH 7.4, 0.5 mM EDTA) was used. Compounds of the invention were incubated with 0.25 nM [^3H]Prazosin for 60 min at 25° C. Non-specific binding was estimated in the presence of 10 μM phentolamine Receptor proteins were filtered and washed, the filters were then counted to determine [^3H]Prazosin specifically bound. […] Compounds of the invention were tested in this biochemical assay and percent inhibition of specific binding was determined.

T1 sequence (P14416 whole entry): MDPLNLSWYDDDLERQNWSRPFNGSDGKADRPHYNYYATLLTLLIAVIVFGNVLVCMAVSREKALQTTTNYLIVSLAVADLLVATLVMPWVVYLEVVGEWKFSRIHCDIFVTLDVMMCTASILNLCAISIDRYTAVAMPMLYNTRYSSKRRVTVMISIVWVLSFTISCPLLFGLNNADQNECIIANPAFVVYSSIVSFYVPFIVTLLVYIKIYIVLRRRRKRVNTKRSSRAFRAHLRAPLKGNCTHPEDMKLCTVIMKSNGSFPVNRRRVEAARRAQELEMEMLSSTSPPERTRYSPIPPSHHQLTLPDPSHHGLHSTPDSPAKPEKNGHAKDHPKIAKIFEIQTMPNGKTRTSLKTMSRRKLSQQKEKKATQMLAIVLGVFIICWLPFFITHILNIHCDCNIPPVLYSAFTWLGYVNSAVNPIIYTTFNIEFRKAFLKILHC

| SMILES | inhibition at 1 µM [1] | inhibition at 0.1 µM [2] | inhibition at 0.1 µM [3] | inhibition at 0.1 µM [4] | inhibition at 0.1 µM (Adrenergic α1B) |
| --- | --- | --- | --- | --- | --- |
| Cc1ccc2c(c1)c1c(n2-c2ccccc2-c2cccc3[nH]ncc23)CCN(C)C1 [Compound No. 105, 5-(2-(1H-indazol-4-yl)phenyl)-2,8-dimethyl-2,3,4,5-tetrahydro-1H-pyrido[4,3-b]indole] | 3% | 82% | 54% | – | – |
| Cc1ccc2c(c1)c1c(n2-c2cnc3ccccc3c2)CCN(C)C1 [Compound No. 88, 2,8-dimethyl-5-quinolin-3-yl-2,3,4,5-tetrahydro-1H-pyrido[4,3-b]indole] | 7% | 90% | 13% | – | – |
| Cc1ccc2c(c1)c1c(n2-c2ccccc2-c2cncc3ccccc23)CCN(C)C1 [Compound No. 87, 5-(2-(isoquinolin-4-yl)phenyl)-2,8-dimethyl-2,3,4,5-tetrahydro-1H-pyrido[4,3-b]indole] | 10% | 66% | 14% | – | – |
| Cc1ccc2c(c1)c1c(n2-c2ccccc2-c2sccc2C)CCN(C)C1 [Compound No. 102, 2,8-dimethyl-5-(2-(3-methylthiophen-2-yl)phenyl)-2,3,4,5-tetrahydro-1H-pyrido[4,3-b]indole] | 48% | 90% | 34% | – | – |
| Cc1ccc2c(c1)c1c(n2-c2ccccc2-c2cccn2C)CCN(C)C1 [Compound No. 100, 2,8-dimethyl-5-(2-(1-methyl-1H-pyrrol-2-yl)phenyl)-2,3,4,5-tetrahydro-1H-pyrido[4,3-b]indole] | 11% | 72% | 48% | 95% | – |
| Cc1ccc2c(c1)c1c(n2-c2ccccc2-c2cn[nH]c2)CCN(C)C1 [Compound No. 104, 5-(2-(1H-pyrazol-4-yl)phenyl)-2,8-dimethyl-2,3,4,5-tetrahydro-1H-pyrido[4,3-b]indole] | -1% | 77% | 27% | 14% | 9% |
| Cc1ccc2c(c1)c1c(n2-c2ccccc2-c2cc3ccccc3s2)CCN(C)C1 [Compound No. 103, 5-(2-(benzo[b]thiophen-2-yl)phenyl)-2,8-dimethyl-2,3,4,5-tetrahydro-1H-pyrido[4,3-b]indole] | 10% | 43% | 39% | – | – |
| Cc1ccc2c(c1)c1c(n2-c2ccccc2-c2cnn(C)c2)CCN(C)C1 [Compound No. 86, 2,8-dimethyl-5-(2-(1-methyl-1H-pyrazol-4-yl)phenyl)-2,3,4,5-tetrahydro-1H-pyrido[4,3-b]indole] | 6% | 71% | 53% | – | – |

— patent US9187471B2, “Pyrido [4,3-b] indole and pyrido [3,4-b] indole derivatives and methods of use” (Medivation Technologies, Inc., priority 2010, dated 2015)
